# According to patent publication US20020016279A1, “Enzymatic oxidation composition and process” (Unilever Home & Personal Care USA, Division of Conopco, Inc., priority 2000, published 2002):
# Where a name gives a salt, the structure may show the parent alone.
# Assay: Stain bleach performance of the peroxidase/enhancer system on tomato stains (wash test, no hydrogen peroxide added)
# Procedure: The potential of the enzymatic bleach system, consisting of a peroxidase enzyme and an enhancer, to bleach stains was assessed by washing cotton swatches soiled with tomato stains. The experiments were performed in 1 l beakers, to which 800 ml of wash solution were added. […]
# The swatches were washed during 30 minutes at 30° C. After the wash, the swatches were tumble-dried and the reflectance spectra were measured using a Minolta spectrometer. The color differences between the swatch before and after the wash data were expressed in the CIELAB L*a*b* color space. In this color space, L* indicates lightness and a* and b* are the chromaticity coordinates. Color differences between two swatches are expressed as ΔE, which is calculated from the following equation:
# ΔE={square root}{square root over (ΔL^2+Δa^2+Δb^2)}
# [1] = cotton swatches soiled with tomato stains, enhancer 250 μM, peroxidase from Arthromyces ramosus 50 μg/l, wash solution 2 g/l, pH 10.5, 30 minutes at 30° C, no enhancer: 6.5
Compound,ΔE [1],"ΔE (Example 2, enhancer 50 μM, peroxidase 5 mg/l, tomato stains, peroxidase without enhancer 7.7)","ΔE (Example 2, enhancer 100 μM, peroxidase 5 mg/l, tomato stains, peroxidase without enhancer 7.7)","ΔE (Example 2, enhancer 200 μM, peroxidase 5 mg/l, tomato stains, peroxidase without enhancer 7.7)","ΔE (Example 2, enhancer 200 μM, peroxidase None, tomato stains, None/None control 7.5)"
O=C(NNc1ccccc1)c1ccccc1 [2′-phenylbenzohydrazide],7.4,–,–,–,–
"Nc1ccc(S(=O)(=O)NNC(=O)C(=O)NNc2ccccc2)cc1 [Ethanedioic acid, 2-[(4-aminophenyl)sulfonyl]-hydrazide-2-phenylhydrazide]",8.1,8.3,9.0,9.6,7.4
CCOC(=O)C(=O)NNc1cccc(Cl)c1 [Ethyl [2-(3-chlorophenyl)]hydrazide oxalate],7.8,–,–,–,–
COC(=O)C(=O)NNc1ccccc1 [Methyl [2-phenyl]hydrazide oxalate],9.8,–,–,–,–
CCCOC(=O)C(=O)NNc1ccccc1 [Propyl [2-phenyl]hydrazide oxalate],9.8,–,–,–,–
